In patent US6869957B1, “Non-peptide tachykinin receptor antagonists” (Eli Lilly and Company, priority 1993, dated 2005):
pIC50: −log10 of the molar value.

Tests used:
[1] = molecular target: T1, NK-1 receptor (Homo sapiens, UniProt P25103); assay: NK-1 Receptor Binding Assay (125I-labeled substance P, IM9 cells); details: for pIC50: inhibits fifty percent of binding of 125I-substance P to IM9 cells
T1 construct: endogenous in cells; host or cells: IM9 cells (human cell line), whole cells
Procedure: (§1) The biological activity of the compounds of the present invention was evaluated employing an initial screening assay which rapidly and accurately measured the binding of the tested compound to known NK-1 and NK-2 receptor sites. Assays useful for evaluating tachykinin receptor antagonists are well known in the art.
NK-1 Receptor Binding Assay
Radioreceptor binding assays were performed using a derivative of a previously published protocol.
The IM9 cell line is a well-characterized and readily available human cell line.
The reaction was terminated by filtration through a glass fiber filter harvesting system using filters previously soaked for 20 minutes in 0.1% polyethylenimine. Specific binding of labeled substance P was determined in the presence of 20 nM unlabeled ligand.

[2] = molecular target: T2, human NK-2 receptor (Homo sapiens, UniProt P21452); assay: NK-2 Receptor Binding Assay ([125I]iodohistidyl-neurokinin A, CHO-hNK-2R membranes); details: for pIC50: inhibits fifty percent of binding of [125I]iodohistidyl-neurokinin A to CHO-hNK-2R membranes
T2 construct: expressed in transfected cells; host or cells: CHO-hNK-2R cells (CHO-derived), membrane preparation
T2 sequence (P21452 1-398): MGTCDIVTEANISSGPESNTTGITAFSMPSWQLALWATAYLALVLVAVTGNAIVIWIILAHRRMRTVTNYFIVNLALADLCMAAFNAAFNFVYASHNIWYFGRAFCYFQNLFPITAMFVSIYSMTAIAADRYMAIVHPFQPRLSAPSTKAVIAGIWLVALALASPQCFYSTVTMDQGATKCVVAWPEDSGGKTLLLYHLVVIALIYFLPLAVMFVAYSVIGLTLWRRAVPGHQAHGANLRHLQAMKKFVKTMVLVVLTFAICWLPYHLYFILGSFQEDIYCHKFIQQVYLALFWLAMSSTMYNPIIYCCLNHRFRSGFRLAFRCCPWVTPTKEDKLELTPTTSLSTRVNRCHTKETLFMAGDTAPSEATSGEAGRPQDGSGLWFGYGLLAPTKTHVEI
Procedure: as §1, with “art. See. e.g., J. Jukic, et al., Life Sciences, 49:1463-1469 (1991); N. Kucharczyk, et al., Journal of Medicinal Chemistry, 36:1654-1661 (1993); N. Rouissi, et al., Biochemical and Biophysical Research Communications, 176:894-901 (1991).” for “art.”
NK-2 Receptor Binding Assay
The CHO-hNK-2R cells, a CHO-derived cell line transformed with the human NK-2 receptor, expressing about 400,000 such receptors per cell, were grown in 75 cm^2 flasks or roller bottles in minimal essential medium (alpha modification) with 10% fetal bovine serum. The gene sequence of the human NK-2 receptor is given in N. P. Gerard, et al., Journal of Biological Chemistry, 265:20455-20462 (1990).
For preparation of membranes, 30 confluent roller bottle cultures were dissociated by washing each roller bottle with 10 ml of Dulbecco's phosphate buffered saline (PBS) without calcium and magnesium, followed by addition of 10 ml of enzyme-free cell dissociation solution (PBS-based, from Specialty Media, Inc.). After an additional 15 minutes, the dissociated cells were pooled and centrifuged at 1,000 RPM for 10 minutes in a clinical centrifuge. Membranes were prepared by homogenization of the cell pellets in 300 ml 50 mM Tris buffer, pH 7.4 with a Tekma® homogenizer for 10-15 seconds, followed by centrifugation at 12,000 RPM (20,000×g) for 30 minutes using a Beckman JA-14® rotor. The pellets were washed once using the above procedure. and the final pellets were resuspended in 100-120 ml 50 mM Tris buffer, pH 7.4, and 4 ml aliquots stored frozen at −70° C. The protein concentration of this preparation was 2 mg/ml.
For the receptor binding assay, one 4-ml aliquot of the CHO-hNK-2R membrane preparation was suspended in 40 ml of assay buffer containing 50 mM Tris, pH 7.4, 3 mM manganese chloride, 0.02% bovine serum albumin (BSA) and 4 μg/ml chymostatin. A 200 μl volume of the homogenate (40 μg protein) was used per sample. The radioactive ligand was [^125I]iodohistidyl-neurokinin A (New England Nuclear, NEX-252), 2200 Ci/mmol. The ligand was prepared in assay buffer at 20 nCi per 100 μl; the final concentration in the assay was 20 pM. Non-specific binding was determined using 1 μM eledoisin. Ten concentrations of eledoisin from 0.1 to 1000 nM were used for a standard concentration-response curve.
All samples and standards were added to the incubation in 10 μl dimethylsulfoxide (DMSO) for screening (single dose) or in 5 μl DMSO for IC50 determinations. The order of additions for incubation was 190 or 195 μl assay buffer, 200 μl homogenate, 10 or 5 μl sample in DMSO, 100 μl radioactive ligand. The samples were incubated 1 hr at room temperature and then filtered on a 48 well Brandel cell harvester through GF/B filters which had been presoaked for two hours in 50 mM Tris buffer, pH 7.7, containing 0.5% BSA. The filter was washed 3 times with approximately 3 ml of cold 50 mm Tris buffer, pH 7.7. The filter circles were then punched into 12×75 mm polystyrene tubes and counted in a gamma counter.

T1 sequence (P25103 whole entry): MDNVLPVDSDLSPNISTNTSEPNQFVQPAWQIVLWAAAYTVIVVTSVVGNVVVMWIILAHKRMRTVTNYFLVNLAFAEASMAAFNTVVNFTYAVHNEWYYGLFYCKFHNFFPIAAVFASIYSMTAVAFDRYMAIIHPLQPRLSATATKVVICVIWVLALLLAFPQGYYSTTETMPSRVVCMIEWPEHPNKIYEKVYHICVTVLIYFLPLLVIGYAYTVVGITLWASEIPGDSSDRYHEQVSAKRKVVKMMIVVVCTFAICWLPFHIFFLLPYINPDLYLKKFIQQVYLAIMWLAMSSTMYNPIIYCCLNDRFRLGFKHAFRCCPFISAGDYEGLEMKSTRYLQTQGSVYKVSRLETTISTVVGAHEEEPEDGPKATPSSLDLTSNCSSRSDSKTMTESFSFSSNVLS

Compound | pIC50 [1] | pIC50 [2] | also measured
COc1ccccc1CNCC(Cc1c[nH]c2ccccc12)NC(=O)CN1CCN(c2ccccc2)CC1 (stereo not shown) [Example 4] | 7.40 | 5.82 | –
CC(=O)N(Cc1ccccc1Cl)CC(Cc1c[nH]c2ccccc12)NC(c1ccccc1)(c1ccccc1)c1ccccc1 (stereo not shown) [Example 170] | 7.17 | – | NK-2 percent inhibition of binding ([2]; @ 10 μM): 2% @
COc1ccccc1CN(CC(Cc1c[nH]c2ccccc12)NC(=O)CN1CCN(C(C)=O)CC1)C(C)=O (stereo not shown) [Example 79] | 7.42 | 5.21 | –
CC(C)(C)OC(=O)NCC(Cc1c[nH]c2ccccc12)NC(=O)CN1CCN(c2ccccc2)CC1 (stereo not shown) [Example 151, 1-t-butoxycarbonylamino-3-(1H-indol-3-yl)-2-[N-(2-((4-phenyl)piperazin-1-yl)acetyl)amino]propane] | 5.85 | 5.77 | –
CCCCCCN(CC(Cc1c[nH]c2ccccc12)NC(=O)CN1CCN(c2ccccc2)CC1)C(C)=O (stereo not shown) [Example 40] | 7.67 | 6.04 | –
COc1ccccc1CN(CC(NC(=O)CN1CCC(N2CCCCC2)CC1)c1ccccc1)C(C)=O (stereo not shown) [Example 146] | 6.38 | 5.41 | –
CC(=O)N(CC1CCCCC1)CC(Cc1c[nH]c2ccccc12)NC(=O)CN1CCN(c2ccccc2)CC1 (stereo not shown) [Example 41] | 8.11 | 6.03 | –
COc1ccccc1CN(CC(Cc1c[nH]c2ccccc12)NC(=O)CN1CCC(N(C)C)CC1)C(C)=O (stereo not shown) [Example 66] | 8.34 | 5.14 | –
COc1ccccc1CN(CC(N)Cc1cn(C)c2ccccc12)C(C)=O (stereo not shown) [Example 160] | – | 4.72 | NK-1 percent inhibition of binding ([1]; @ 5 μM): 0% @
CCCCCCN(CC(Cc1c[nH]c2ccccc12)NC(c1ccccc1)(c1ccccc1)c1ccccc1)C(C)=O (stereo not shown) [Example 166] | – | 5.00 | NK-1 percent inhibition of binding ([1]; @ 5 μM): 0% @ 5 μM
CC(=O)N(CC(Cc1c[nH]c2ccccc12)NC(=O)CN1CCC(N2CCCCC2)CC1)C(C)c1ccccc1 (stereo not shown) [Example 104] | 9.21 | 5.80 | –
COc1ccccc1CN(CC(Cc1c[nH]c2ccccc12)NC(=O)CN1CCN(Cc2ccccc2)CC1)C(C)=O (stereo not shown) [Example 77] | 9.06 | 6.20 | –
CC(=O)NC(Cc1c[nH]c2ccccc12)CN(C(C)=O)C(C)c1ccccc1 (stereo not shown) [Example 99] | – | – | NK-1 percent inhibition of binding ([1]; @ 1 μM): 15% @; NK-2 percent inhibition of binding ([2]; @ 10 μM): 54% @
COc1ccccc1CN(CC(Cc1c[nH]c2cccc(C)c12)NC(=O)CN1CCC(N2CCCCC2)CC1)C(C)=O (stereo not shown) [Example 125] | 9.18 | 5.68 | –
COc1ccccc1CN(CC(Cc1cn(C)c2ccccc12)NC(=O)CBr)C(C)=O (stereo not shown) [Example 162] | 6.43 | – | NK-2 percent inhibition of binding ([2]; @ 10 μM): 0% @
COc1ccccc1CN(CC(Cc1c[nH]c2ccccc12)NC(=O)CNCc1ccccn1)C(C)=O (stereo not shown) [Example 81] | 7.89 | 5.96 | –
COc1ccccc1CN(CC(Cc1c[nH]c2cc(C)ccc12)NC(c1ccccc1)(c1ccccc1)c1ccccc1)C(C)=O (stereo not shown) [Example 171] | – | – | NK-1 percent inhibition of binding ([1]; @ 5 μM): 0% @ 5 μM; NK-2 percent inhibition of binding ([2]; @ 10 μM): 6% @
COc1ccccc1CNCC(Cc1c[nH]c2ccccc12)NC(C)=O (stereo not shown) [Example 105] | 6.20 | 4.82 | –
COc1ccccc1CN(CC(NC(c1ccccc1)(c1ccccc1)c1ccccc1)c1ccc(Cl)c(Cl)c1)C(C)=O (stereo not shown) [Example 176] | – | – | NK-1 percent inhibition of binding ([1]; @ 5 μM): 9% @ 5 μM; NK-2 percent inhibition of binding ([2]; @ 10 μM): 0% @
COc1ccccc1CN(CC(Cc1c[nH]c2ccccc12)NC(=O)CN1CCN(c2ncccn2)CC1)C(C)=O (stereo not shown) [Example 78] | 8.00 | 5.68 | –

Continued, in another order:

pIC50 [1] | pIC50 [2] | Compound | also measured
7.28 | 5.77 | O=C(CN1CCN(c2ccccc2)CC1)NC(CNCc1ccccc1)Cc1c[nH]c2ccccc12 (stereo not shown) [Example 1] | –
7.53 | 6.03 | COc1ccccc1CN(CC(Cc1c[nH]c2cc(C)ccc12)NC(=O)CN1CCN(c2ccccc2)CC1)C(C)=O (stereo not shown) [Example 114] | –
8.68 | 5.48 | COc1ccc(CN(CC(Cc2c[nH]c3ccccc23)NC(=O)CN2CCN(c3ccccc3)CC2)C(C)=O)cc1 (stereo not shown) [Example 22] | –
6.19 | 6.27 | O=C(CN1CCN(c2ccccc2)CC1)NC(CNCC1CCCCC1)Cc1c[nH]c2ccccc12 (stereo not shown) [Example 153] | –
6.11 | 5.60 | COc1ccccc1CN(CC(NC(=O)CN1CCN(c2ccccc2)CC1)c1ccccc1)C(C)=O (stereo not shown) [Example 138] | –
– | 5.92 | CC(=O)N(CC(Cc1c[nH]c2ccccc12)NC(=O)CN1CCN(c2ccccc2)CC1)c1ccccc1 (stereo not shown) [Example 42] | NK-1 percent inhibition of binding ([1]; @ 1 μM): 16% @
– | 5.54 | CN(CC(Cc1c[nH]c2ccccc12)NC(=O)CN1CCN(c2ccccc2)CC1)C(=O)c1ccccc1 (stereo not shown) [Example 157] | NK-1 percent inhibition of binding ([1]; @ 5 μM): 88% @
7.17 | – | COc1ccccc1CN(CC(Cc1c[nH]c2ccccc12)NC(C)=O)C(C)=O (stereo not shown) [Example 106] | inhibition at 10 µM ([2]; @ 10 μM, read-out: NK-2 percent inhibition of binding): 33%
7.89 | 5.92 | COc1ccccc1CN(CC(Cc1c[nH]c2ccccc12)NC(=O)CNCc1cccnc1)C(C)=O (stereo not shown) [Example 82] | –
7.62 | 5.07 | COc1ccccc1CN(CC(Cc1ccccc1)NC(=O)CN1CCC(N2CCCCC2)CC1)C(C)=O (stereo not shown) [Example 148] | –
7.19 | 5.28 | COc1ccccc1CNCC(Cc1c[nH]c2ccccc12)NC(=O)CN1CCC(N2CCCCC2)CC1 (stereo not shown) [Example 45] | –
8.42 | 6.12 | COc1ccccc1CN(CC(Cc1c[nH]c2ccccc12)NC(=O)CN1CC=C(c2ccccc2)CC1)C(C)=O (stereo not shown) [Example 67] | –
8.22 | 6.06 | CC(=O)N(Cc1cccc(F)c1)CC(Cc1c[nH]c2ccccc12)NC(=O)CN1CCN(c2ccccc2)CC1 (stereo not shown) [Example 20] | –
7.01 | 5.22 | CC(NCC(Cc1c[nH]c2ccccc12)NC(=O)CN1CCC(N2CCCCC2)CC1)c1ccccc1 (stereo not shown) [Example 101] | –
8.14 | 6.03 | COc1ccccc1CN(CC(Cc1c[nH]c2ccccc12)NC(=O)CN1CCCCCC1)C(C)=O (stereo not shown) [Example 61] | –
7.96 | 6.59 | COc1ccccc1CN(CC(Cc1cccc2ccccc12)NC(=O)CN1CCN(c2ccccc2)CC1)C(C)=O (stereo not shown) [Example 141] | –
7.37 | 5.23 | COc1ccccc1CN(CC(Cc1c[nH]c2ccccc12)NC(=O)CN1CCOCC1)C(C)=O (stereo not shown) [Example 62] | –
8.51 | 5.52 | COc1ccccc1CN(CC(Cc1ccccc1)NC(=O)CN1CCN(c2ccccc2)CC1)C(C)=O (stereo not shown) [Example 140] | –
